Patent US20230085307A1, “PYRIDAZINONE COMPOUND AND HERBICIDE” (NISSAN CHEMICAL CORPORATION, priority 2019, published 2023)

How the values were obtained:
blackgrass [1] = assay: Test Example 4: herbicidal effect by soil treatment (Table 19, symbol J); assay type: in vivo, blackgrass (Alopecurus myosuroides); details: amount of applied herbicide 320 g/ha
Outline: (§1)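 In this soil treatment, the formulated compound reached the seeds only through the soil: seeds were buried about 1.5 cm deep in sterilized diluvial soil, then the diluted emulsion was sprayed over the surface. After three weeks at 25° C. to 30° C. in a greenhouse, effects were graded on criteria from an earlier test.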

southern crabgrass [2] = assay: Test Example 4: herbicidal effect by soil treatment (Table 19, symbol F); assay type: in vivo, southern crabgrass (Digitaria ciliaris); details: amount of applied herbicide 320 g/ha
Outline: as §1

Italian ryegrass [3] = assay: Test Example 4: herbicidal effect by soil treatment (Table 19, symbol K); assay type: in vivo, Italian ryegrass (Lolium multiflorum); details: amount of applied herbicide 320 g/ha
Outline: as §1

chickweed [4] = assay: Test Example 4: herbicidal effect by soil treatment (Table 19, symbol P); assay type: in vivo, common chickweed (Stellaria media); details: amount of applied herbicide 320 g/ha
Outline: as §1

redroot pigweed [5] = assay: Test Example 4: herbicidal effect by soil treatment (Table 19, symbol N); assay type: in vivo, redroot pigweed (Amaranthus retroflexus); details: amount of applied herbicide 320 g/ha
Outline: as §1

barnyard grass [6] = assay: Test Example 4: herbicidal effect by soil treatment (Table 19, symbol H); assay type: in vivo, barnyard grass (Echinochloa crus-galli); details: amount of applied herbicide 320 g/ha
Outline: as §1

persian speedwell [7] = assay: Test Example 4: herbicidal effect by soil treatment (Table 19, symbol R); assay type: in vivo, Persian speedwell (Veronica persica); details: amount of applied herbicide 320 g/ha
Outline: as §1

lambsquarters [8] = assay: Test Example 4: herbicidal effect by soil treatment (Table 19, symbol O); assay type: in vivo, lambsquarters (Chenopodium album); details: amount of applied herbicide 320 g/ha
Outline: as §1

green foxtail [9] = assay: Test Example 4: herbicidal effect by soil treatment (Table 19, symbol G); assay type: in vivo, green foxtail (Setaria viridis); details: amount of applied herbicide 320 g/ha
Outline: as §1

windgrass [10] = assay: Test Example 4: herbicidal effect by soil treatment (Table 19, symbol L); assay type: in vivo, windgrass (Apera spica-venti); details: amount of applied herbicide 320 g/ha
Outline: as §1

wild oat [11] = assay: Test Example 4: herbicidal effect by soil treatment (Table 19, symbol I); assay type: in vivo, wild oat (Avena fatua); details: amount of applied herbicide 320 g/ha
Outline: as §1

false cleavers = assay: Test Example 4: herbicidal effect by soil treatment (Table 19, symbol Q); assay type: in vivo, false cleavers (Galium spurium); details: amount of applied herbicide 320 g/ha
Outline: as §1

velvetleaf [12] = assay: Test Example 4: herbicidal effect by soil treatment (Table 19, symbol M); assay type: in vivo, velvetleaf (Abutilon theophrasti); details: amount of applied herbicide 320 g/ha
Outline: as §1

velvetleaf [13] = assay: Test Example 5: herbicidal effect by foliage application, plastic box (Table 20, symbol M); assay type: in vivo, velvetleaf (Abutilon theophrasti); details: foliage application, 320 g/ha, evaluated 3 weeks after application
Outline: (§2)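 Plants were sown into sterilized diluvial soil under about 1.5 cm cover and kept in a greenhouse at 25° C. to 30° C. Fourteen days on, foliage received an even spray of the diluted emulsion. Herbicidal or crop effect was judged three weeks afterwards.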

Chinese sprangletop = assay: Test Example 3: herbicidal effect by foliage application, Wagner pot (Table 18, symbol D); assay type: in vivo, chinese sprangletop (Leptochloa chinensis); details: amount of applied herbicide 320 g/ha
Outline: (§3)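 Plants were sown in alluvial soil held under 0.1–0.5 cm standing water and grown 14 days in a greenhouse at 25–30 °C. An emulsifiable formulation, water-diluted to the set dose, was then sprayed onto the foliage, and effects were scored three weeks later using previously defined criteria.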

barnyard grass [14] = assay: Test Example 3: herbicidal effect by foliage application, Wagner pot (Table 18, symbol H); assay type: in vivo, barnyard grass (Echinochloa crus-galli); details: amount of applied herbicide 320 g/ha
Outline: as §3

windgrass [15] = assay: Test Example 5: herbicidal effect by foliage application, plastic box (Table 20, symbol L); assay type: in vivo, windgrass (Apera spica-venti); details: foliage application, 320 g/ha, evaluated 3 weeks after application
Outline: as §2

rice flat sedge = assay: Test Example 3: herbicidal effect by foliage application, Wagner pot (Table 18, symbol E); assay type: in vivo, rice flat sedge (Cyperus iria); details: amount of applied herbicide 320 g/ha
Outline: as §3

lambsquarters [16] = assay: Test Example 5: herbicidal effect by foliage application, plastic box (Table 20, symbol O); assay type: in vivo, lambsquarters (Chenopodium album); details: foliage application, 320 g/ha, evaluated 3 weeks after application
Outline: as §2

Italian ryegrass [17] = assay: Test Example 5: herbicidal effect by foliage application, plastic box (Table 20, symbol K); assay type: in vivo, Italian ryegrass (Lolium multiflorum); details: foliage application, 320 g/ha, evaluated 3 weeks after application
Outline: as §2

redroot pigweed [18] = assay: Test Example 5: herbicidal effect by foliage application, plastic box (Table 20, symbol N); assay type: in vivo, redroot pigweed (Amaranthus retroflexus); details: foliage application, 320 g/ha, evaluated 3 weeks after application
Outline: as §2

persian speedwell [19] = assay: Test Example 5: herbicidal effect by foliage application, plastic box (Table 20, symbol R); assay type: in vivo, Persian speedwell (Veronica persica); details: foliage application, 320 g/ha, evaluated 3 weeks after application
Outline: as §2

green foxtail [20] = assay: Test Example 5: herbicidal effect by foliage application, plastic box (Table 20, symbol G); assay type: in vivo, green foxtail (Setaria viridis); details: foliage application, 320 g/ha, evaluated 3 weeks after application
Outline: as §2

southern crabgrass [21] = assay: Test Example 5: herbicidal effect by foliage application, plastic box (Table 20, symbol F); assay type: in vivo, southern crabgrass (Digitaria ciliaris); details: foliage application, 320 g/ha, evaluated 3 weeks after application
Outline: as §2

chickweed [22] = assay: Test Example 5: herbicidal effect by foliage application, plastic box (Table 20, symbol P); assay type: in vivo, common chickweed (Stellaria media); details: foliage application, 320 g/ha, evaluated 3 weeks after application
Outline: as §2

blackgrass [23] = assay: Test Example 5: herbicidal effect by foliage application, plastic box (Table 20, symbol J); assay type: in vivo, blackgrass (Alopecurus myosuroides); details: foliage application, 320 g/ha, evaluated 3 weeks after application
Outline: as §2

barnyard grass [24] = assay: Test Example 5: herbicidal effect by foliage application, plastic box (Table 20, symbol H); assay type: in vivo, barnyard grass (Echinochloa crus-galli); details: foliage application, 320 g/ha, evaluated 3 weeks after application
Outline: as §2

wild oat [25] = assay: Test Example 5: herbicidal effect by foliage application, plastic box (Table 20, symbol I); assay type: in vivo, wild oat (Avena fatua); details: foliage application, 320 g/ha, evaluated 3 weeks after application
Outline: as §2

Row | Structure (SMILES) | F: southern crabgrass, herbicidal effect grade (southern crabgrass [2]) | K: Italian ryegrass, herbicidal effect grade (Italian ryegrass [3]) | P: chickweed, herbicidal effect grade (chickweed [4]) | N: redroot pigweed, herbicidal effect grade (redroot pigweed [5]) | H: barnyard grass, herbicidal effect grade (barnyard grass [6]) | R: persian speedwell, herbicidal effect grade (persian speedwell [7]) | O: lambsquarters, herbicidal effect grade (lambsquarters [8]) | G: green foxtail, herbicidal effect grade (green foxtail [9]) | L: windgrass, herbicidal effect grade (windgrass [10]) | I: wild oat, herbicidal effect grade (wild oat [11]) | Q: false cleavers, herbicidal effect grade (false cleavers) | M: velvetleaf, herbicidal effect grade (velvetleaf [12]) | also measured
1 | CCCC(=O)Oc1c(C)nn(C)c(=O)c1-c1c(-c2ccc(OC)c(OC)c2)sc2cc(OC)ccc12 [3-081] | 0 (Herbicidal rate of 5% or less (almost no effect)) | 0 (Herbicidal rate of 5% or less (almost no effect)) | 0 (Herbicidal rate of 5% or less (almost no effect)) | 0 (Herbicidal rate of 5% or less (almost no effect)) | 0 (Herbicidal rate of 5% or less (almost no effect)) | 2 (Herbicidal rate of 20% or more and less than 40%) | 0 (Herbicidal rate of 5% or less (almost no effect)) | 0 (Herbicidal rate of 5% or less (almost no effect)) | 0 (Herbicidal rate of 5% or less (almost no effect)) | 0 (Herbicidal rate of 5% or less (almost no effect)) | 0 (Herbicidal rate of 5% or less (almost no effect)) | 0 (Herbicidal rate of 5% or less (almost no effect)) | J: blackgrass, herbicidal effect grade (blackgrass [1]): 0 (Herbicidal rate of 5% or less (almost no effect))
2 | Cc1ccc2oc(-c3ccc(OC(F)F)cc3)c(-c3c(O)c(C)nn(C)c3=O)c2c1 [9-053] | 2 (Herbicidal rate of 20% or more and less than 40%) | 5 (Herbicidal rate of 90% or more (almost completely withered)) | 3 (Herbicidal rate of 40% or more and less than 70%) | 5 (Herbicidal rate of 90% or more (almost completely withered)) | 4 (Herbicidal rate of 70% or more and less than 90%) | 4 (Herbicidal rate of 70% or more and less than 90%) | 5 (Herbicidal rate of 90% or more (almost completely withered)) | 4 (Herbicidal rate of 70% or more and less than 90%) | 0 (Herbicidal rate of 5% or less (almost no effect)) | 0 (Herbicidal rate of 5% or less (almost no effect)) | 0 (Herbicidal rate of 5% or less (almost no effect)) | 4 (Herbicidal rate of 70% or more and less than 90%) | M (velvetleaf) herbicidal effect grade (velvetleaf [13]): 5 (Herbicidal rate of 90% or more (almost completely withered)); Herbicidal effect on D (Chinese sprangletop), foliage application (Chinese sprangletop): 0 (Herbicidal rate of 5% or less (almost no effect)); Herbicidal effect on H (barnyard grass), foliage application (barnyard grass [14]): 4 (Herbicidal rate of 70% or more and less than 90%); L (windgrass) herbicidal effect grade (windgrass [15]): 3 (Herbicidal rate of 40% or more and less than 70%); Herbicidal effect on E (rice flat sedge), foliage application (rice flat sedge): 4 (Herbicidal rate of 70% or more and less than 90%); O (lambsquarters) herbicidal effect grade (lambsquarters [16]): 5 (Herbicidal rate of 90% or more (almost completely withered)); K (Italian ryegrass) herbicidal effect grade (Italian ryegrass [17]): 5 (Herbicidal rate of 90% or more (almost completely withered)); N (redroot pigweed) herbicidal effect grade (redroot pigweed [18]): 5 (Herbicidal rate of 90% or more (almost completely withered)); R (persian speedwell) herbicidal effect grade (persian speedwell [19]): 5 (Herbicidal rate of 90% or more (almost completely withered)); G (green foxtail) herbicidal effect grade (green foxtail [20]): 4 (Herbicidal rate of 70% or more and less than 90%); F (southern crabgrass) herbicidal effect grade (southern crabgrass [21]): 3 (Herbicidal rate of 40% or more and less than 70%); P (chickweed) herbicidal effect grade (chickweed [22]): 5 (Herbicidal rate of 90% or more (almost completely withered)); J (blackgrass) herbicidal effect grade (blackgrass [23]): 4 (Herbicidal rate of 70% or more and less than 90%); H (barnyard grass) herbicidal effect grade (barnyard grass [24]): 3 (Herbicidal rate of 40% or more and less than 70%); I (wild oat) herbicidal effect grade (wild oat [25]): 0 (Herbicidal rate of 5% or less (almost no effect))
